# Reference: US20060045953A1 (priority 2004, published 2006)
# Biological target: T1, hT1R2/hT1R3 sweet receptor (Homo sapiens, UniProt Q7RTX0+Q8TE23)
# T1 construct: expressed in transfected cells; host or cells: HEK293 derivative stably expressing Gα15, clone S-9
# T1 sequence (Q8TE23 20-839): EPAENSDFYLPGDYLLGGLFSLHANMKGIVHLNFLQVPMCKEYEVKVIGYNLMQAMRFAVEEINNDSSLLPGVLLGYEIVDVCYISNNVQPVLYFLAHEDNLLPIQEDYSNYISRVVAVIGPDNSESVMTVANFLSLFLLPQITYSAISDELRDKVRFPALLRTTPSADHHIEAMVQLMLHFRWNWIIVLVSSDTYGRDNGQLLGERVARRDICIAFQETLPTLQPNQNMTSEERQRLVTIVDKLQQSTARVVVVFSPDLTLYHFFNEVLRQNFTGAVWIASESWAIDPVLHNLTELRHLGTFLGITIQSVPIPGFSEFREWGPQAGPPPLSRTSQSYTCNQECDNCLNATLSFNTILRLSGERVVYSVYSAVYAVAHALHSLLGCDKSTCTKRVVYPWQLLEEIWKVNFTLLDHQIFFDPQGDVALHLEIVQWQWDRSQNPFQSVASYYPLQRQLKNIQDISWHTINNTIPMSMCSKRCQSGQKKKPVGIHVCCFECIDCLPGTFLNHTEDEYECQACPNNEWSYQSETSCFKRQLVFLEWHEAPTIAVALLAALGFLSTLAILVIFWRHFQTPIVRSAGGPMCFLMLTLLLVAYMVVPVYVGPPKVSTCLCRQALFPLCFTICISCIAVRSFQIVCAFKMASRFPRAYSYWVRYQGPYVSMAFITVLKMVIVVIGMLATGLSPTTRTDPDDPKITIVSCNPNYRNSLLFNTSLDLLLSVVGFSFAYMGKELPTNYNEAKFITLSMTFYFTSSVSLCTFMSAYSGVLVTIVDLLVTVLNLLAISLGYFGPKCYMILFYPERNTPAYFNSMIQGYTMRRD
# T1 sequence (Q7RTX0 21-852): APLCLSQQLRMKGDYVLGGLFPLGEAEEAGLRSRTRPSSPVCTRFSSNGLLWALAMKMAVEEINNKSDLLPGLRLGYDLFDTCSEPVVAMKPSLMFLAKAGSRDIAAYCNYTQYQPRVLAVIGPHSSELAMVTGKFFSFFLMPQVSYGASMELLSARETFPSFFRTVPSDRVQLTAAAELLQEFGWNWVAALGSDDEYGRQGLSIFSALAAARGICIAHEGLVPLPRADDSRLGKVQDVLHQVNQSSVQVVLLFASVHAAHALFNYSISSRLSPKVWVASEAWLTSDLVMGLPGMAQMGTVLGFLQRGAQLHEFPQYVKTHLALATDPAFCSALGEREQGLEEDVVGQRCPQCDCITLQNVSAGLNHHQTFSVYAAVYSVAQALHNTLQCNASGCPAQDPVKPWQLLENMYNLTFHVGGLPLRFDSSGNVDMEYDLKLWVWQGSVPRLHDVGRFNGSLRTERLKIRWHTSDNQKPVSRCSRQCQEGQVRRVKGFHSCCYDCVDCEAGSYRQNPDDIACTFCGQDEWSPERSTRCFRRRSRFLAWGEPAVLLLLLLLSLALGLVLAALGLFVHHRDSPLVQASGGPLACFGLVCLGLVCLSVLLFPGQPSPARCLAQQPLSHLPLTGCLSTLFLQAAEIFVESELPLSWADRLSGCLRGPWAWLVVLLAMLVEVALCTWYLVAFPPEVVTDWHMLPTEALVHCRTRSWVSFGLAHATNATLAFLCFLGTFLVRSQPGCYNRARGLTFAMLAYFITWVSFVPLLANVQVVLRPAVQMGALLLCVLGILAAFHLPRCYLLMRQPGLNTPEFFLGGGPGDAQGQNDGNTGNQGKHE
# Test: In vitro hT1R2/hT1R3 sweet taste receptor activation assay (FLIPR, dose response)
# Format: cell-based
# Conditions: Table E, Sweet Enhancer Amides; read-out: Sweet EC50
# In short: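 S-9 cells expressing hT1R2/hT1R3, loaded with 4 µM Fluo-3AM 1 h at room temperature. Calcium response on FLIPR at room temperature in D-PBS, with 10 concentrations from 60 nM to 30 µM in duplicate.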
row,EC50 [nM],SMILES
1,930,"Cc1cc(Br)cc(C)c1NC(=O)N1Cc2ccccc2C1 [Example E99, N-(4-bromo-2,6-dimethylphenyl)isoindoline-2-carboxamide]"
2,1300,"Cc1cc([N+](=O)[O-])ccc1NC(=O)N1Cc2ccccc2C1 [Example E100, N-(2-methyl-4-nitrophenyl)isoindoline-2-carboxamide]"
3,1370,"O=C(Nc1ccc(F)cc1F)N1Cc2ccccc2C1 [Example E101, N-(2,4-difluorophenyl)isoindoline-2-carboxamide]"
4,2010,"Cc1c(NC(=O)N2Cc3ccccc3C2)cccc1[N+](=O)[O-] [Example E102, N-(2-methyl-3-nitrophenyl)isoindoline-2-carboxamide]"
5,2580,"O=C(Nc1ccc(F)c(F)c1F)N1Cc2ccccc2C1 [Example E103, N-(2,3,4-trifluorophenyl)isoindoline-2-carboxamide]"
6,3050,"Cc1ccc(NC(=O)N2Cc3ccccc3C2)cc1 [Example E104, N-p-tolylisoindoline-2-carboxamide]"
7,3400,"O=C(Nc1ccc(Cl)cc1)N1Cc2ccccc2C1 [Example E105, N-(4-chlorophenyl)isoindoline-2-carboxamide]"
8,3850,"O=C(Nc1ccccc1Cl)N1Cc2ccccc2C1 [Example E106, N-(2-chlorophenyl)isoindoline-2-carboxamide]"
9,4150,"O=C(Nc1ccc(Cl)cc1Cl)N1Cc2ccccc2C1 [Example E107, N-(2,4-dichlorophenyl)isoindoline-2-carboxamide]"
10,4990,"COc1ccc(NC(=O)N2Cc3ccccc3C2)cc1 [Example E108, N-(4-methoxyphenyl)isomdoline-2-carboxamide]"
11,2340,"O=C(Nc1ccc(Cl)cc1Cl)N1CCc2ccccc2C1 [Example E109, N-(2,4-dichlorophenyl)-3,4-dihydroisogumoline-2(1H)-carboxamide]"
12,2500,"N#Cc1ccccc1NC(=O)N1CCc2ccccc2C1 [Example E110, N-(2-cyanophenyl)-3,4-dihydroisoquinoline-2(1H)-carboxamide]"
13,4270,"Cc1ccc(NC(=O)N2CCc3ccccc3C2)cc1 [Example E111, N-p-tolyl-3,4-dihydroisoquinoline-2(1H)-carboxamide]"
14,4330,"Cc1c(Cl)cccc1NC(=O)N1CCc2ccccc2C1 [Example E112, N-(3-chloro-2-methylphenyl)-3,4-dihydroisoguinoline-2(1H)-carboxamide]"
15,4440,"COc1ccc(NC(=O)N2CCc3ccccc3C2)c(OC)c1 [Example E113, N-(2,4-dimethoxyphenyl)-3,4-dihydroisoquinoline-2(1H)-carboxamide]"
16,190,"Cc1cc(Cl)ccc1NC(=O)N1Cc2cccc(C)c2C1 [Example E114, N-(4-chloro-2-methylphenyl)-4-methylisoindoline-2-carboxamide]"
17,250,"Cc1ccc(NC(=O)N2Cc3cccc(C)c3C2)c(C)c1 [Example E115, N-(2,4-dimethylphenyl)-4-methylisoindoline-2-carboxamide]"

row,EC50 [nM],SMILES
1,710,"COc1ccc(NC(=O)N2Cc3cccc(C)c3C2)c(C)c1 [Example E116, N-(4-methoxy-2-methylphenyl)-4-methylisomdoline-2-carboxamide]"
2,90,"COc1cc(F)c(NC(=O)N2Cc3cccc(C)c3C2)c(OC)c1 [Example E117, N-(2-fluoro-4,6-dimethoxyphenyl)-4-methylisoindoline-2-carboxamide]"
3,100,"COc1ccc(NC(=O)N2Cc3cccc(C)c3C2)c(F)c1 [Example E118, N-(2-fluoro-4-methoxyphenyl)-4-methylisoindoline-2-carboxamide]"
4,1060,"O=C(Nc1cccc2c1CCCC2)N1CCc2ccccc21 [Example E119, N-(5,6,7,8-tetrahydronaphthalen-1-yl)indoline 1-carboxamide]"
5,2380,"Cc1cccc(NC(=O)N2CCc3ccccc32)c1C [Example E120, N-(2,3-dimethylphenyl)indoline-1-carboxamide]"
6,1610,"COc1cccc(C(=O)NC2CCCc3c(OC)cccc32)c1O (stereo not shown) [Example E121, 2-hydroxy-3-methoxy-N-(5-methoxy-1,2,3,4-tetrahydronaphthalen-1-yl)benzamide]"
7,1950,"COc1cccc2c1CCCC2NC(=O)c1cccc(C)c1O (stereo not shown) [Example E122, 2-hydroxy-N-(5-methoxy-1,2,3,4-tetrahydronaphthalen-1-yl)-3-methylbenzamide]"
8,2560,"COc1cccc2c1CCCC2NC(=O)c1cccc(-c2ccccc2)c1O (stereo not shown) [Example E123, 2-hydroxy-N-(5-methoxy-1,2,3,4-tetrahydronaphthalen-1-yl)-3-phenylbenzamide]"
9,2640,COc1cccc2c1CCCC2NC(=O)c1cccc(C(C)C)c1O (stereo not shown) [Example E124]
10,620,"CCCc1nocc1C(=O)N[C@@H]1CCCc2c(C)cc(C)cc21 [Example E125, (R)-N-(5,7-dimethyl-1,2,3,4-tetrahydronaphthalen-1-yl)-3-propylisoxazole-4-carboxamide]"
11,890,"Cc1cccc2c1CCC[C@H]2NC(=O)c1cccc(Cl)c1O [Example E126, (R)-3-chloro-2-hydroxy-N-(5-methyl-1,2,3,4-tetrahydronaphthalen-1-yl)benzamide]"
12,1240,"CCc1nocc1C(=O)N[C@@H]1CCCc2c(C)cc(C)cc21 [Example E128, (R)-N-(5,7-dimethyl-1,2,3,4-tetrahydronaphthalen-1-yl)-3-ethylisoxazole-4-carboxamide]"
13,410,"C/C=C/c1c(F)c(F)c(C(=O)N[C@@H](C)C(C)C)c(F)c1F [Example E129, (S,E)-2,3,5,6-tetrafluoro-N-(3-methylbutan-2-yl)-4-(prop-1-enyl)benzamide]"
14,430,"C=CCc1c(F)c(F)c(C(=O)N[C@@H](C)C(C)(C)C)c(F)c1F [Example E130, (S)-4-allyl-N-(3,3-dimethylbutan-2-yl)-2,3,5,6-tetrafluorobenzamide]"
15,440,"CC(C)[C@H](C)NC(=O)c1c(F)c(F)c(-c2ccccc2)c(F)c1F [Example E131, (S)-2,3,5,6-tetrafluoro-N-(3-methylbutan-2-yl)-4-phenyl benzamide]"
16,550,"C=CCc1c(F)c(F)c(C(=O)NC2CCCCC2)c(F)c1F [Example E132, 4-allyl-N-cyclohexyl-2,3,5,6-tetrafluorobenzamide]"
17,600,"CCOc1c(F)c(F)c(C(=O)N[C@@H](C)C(C)C)c(F)c1F [Example E133, (S)-4-ethoxy-2,3,5,6-tetrafluoro-N-(3-methylbutan-2-yl)benzamide]"
